Reference: ChEMBL document CHEMBL4665709, “Rational Avoidance of Protease Cleavage Sites and Symmetrical End-Tagging Significantly Enhances the Stability and Therapeutic Potential of Antimicrobial Peptides” (J Med Chem, 2020)
Values after ≈ are worked out from the molar mass of the structure shown. Active and inactive are the calls of the source. No cut-off for these calls is given here. Where a SMILES comes first, the peptide text is derived from it.

Assays:
Escherichia coli [1] = assay: Antibacterial activity against Escherichia coli ATCC 25922 infected in C57BL/6 mouse assessed as reduction in lesion in lung at 10 mg/kg, ip measured after 11 hrs by hematoxylin and eosin staining based assay; assay type: functional, organism-based
[2] = Toxicity in C57BL/6 mouse assessed as effect on aspartate aminotransferase level at 10 mg/kg, ip measured after 5 days; assay type: organism-based; details: in vivo, 120 h, time 5 day
Cell membrane [3] = assay: Induction of cytoplasmic membrane depolarization in Escherichia coli ATCC 25922 at 0.5 to 2 times MIC up to 1000 secs by DiSC3-5 dye-based fluorescence assay; assay type: subcellular; details: time sec <=1000
[4] = Toxicity in C57BL/6 mouse assessed as effect on blood urea nitrogen level at 10 mg/kg, ip measured after 5 days; assay type: organism-based; details: in vivo, 120 h, time 5 day
[5] = Therapeutic index, ratio of MHC for human RBC to geometric mean of peptide MIC for Salmonella typhimurium 7731; assay type: toxicity; details: human red blood cells (RBC), read-out: TI
Cell membrane [6] = assay: Induction of cytoplasmic membrane depolarization in Staphylococcus aureus ATCC 29213 at 0.5 to 2 times MIC up to 1000 secs by DiSC3-5 dye-based fluorescence assay; assay type: subcellular; details: time sec <=1000
[7] = Stability of compound assessed as proteinase K (unknown origin)-mediated drug degradation after 8 hrs by RP-HPLC analysis; assay type: ADME; details: human
Staphylococcus aureus [8] = assay: Displacement of BODIPY-TR-cadaverine from Staphylococcus aureus LTA after 4 hrs by fluorescence assay
Escherichia coli [9] = assay: Antibacterial activity against Escherichia coli ATCC 25922 after 18 to 24 hrs in presence of 8 uM Zn2+ by CLSI-based broth microdilution method; assay type: functional; details: time hrs 18-24
Escherichia coli [10] = assay: Antibacterial activity against Escherichia coli ATCC 25922 infected in C57BL/6 mouse assessed as reduction in bacterial load in kidney at 10 mg/kg, ip measured after 11 hrs (reference value: 7.59 log CFU/g); assay type: functional
[11] = Therapeutic index, ratio of MHC for human RBC to geometric mean of peptide MIC for Staphylococcus aureus ATCC 29213; assay type: toxicity; details: human red blood cells (RBC), read-out: TI
[12] = Antibacterial activity against Salmonella pullorum 7913 after 18 to 24 hrs by CLSI-based broth microdilution method; assay type: functional, Salmonella enterica subsp. enterica serovar Pullorum; details: Salmonella enterica, time hrs 18-24
Salmonella typhimurium = assay: Antibacterial activity against Salmonella typhimurium 7731 after 18 to 24 hrs by CLSI-based broth microdilution method; assay type: functional, Salmonella enterica subsp. enterica serovar Typhimurium; details: Salmonella enterica, time hrs 18-24
Lipopolysaccharide (LPS) = assay: Displacement of BODIPY-TR-cadaverine from Escherichia coli O111:B4 LPS after 4 hrs by fluorescence assay
Cell membrane [13] = assay: Induction of structural changes in membrane of Staphylococcus aureus ATCC 29213 assessed as cytoplasmic leakage at 1 times MIC after 1 hr by transmission electron microscopy
[14] = Stability of compound at 100 degreeC after 30 to 90 mins; assay type: physicochemical; details: time 30-90 min
Cell membrane [15] = assay: Induction of structural changes in membrane of Escherichia coli ATCC 25922 assessed as membrane rupture at 1 times MIC after 1 hr by transmission electron microscopy; assay type: subcellular
Escherichia coli [16] = assay: Antibacterial activity against Escherichia coli ATCC 25922 after 18 to 24 hrs in presence of 6 uM NH4+ by CLSI-based broth microdilution method; assay type: functional; details: time hrs 18-24
Cell membrane [17] = assay: Disruption of membrane integrity in Staphylococcus aureus ATCC 29213 assessed as induction of membrane rupture at 0.5 to 2 times after 1 hr by PI-staining based fluorescence microscopy; assay type: subcellular
[18] = Toxicity in C57BL/6 mouse assessed as effect on aspartate aminotransferase level at 20 mg/kg, ip measured after 5 days; assay type: organism-based; details: in vivo, 120 h, time 5 day
Staphylococcus aureus [19] = assay: Antibacterial activity against Staphylococcus aureus ATCC 29213 after 18 to 24 hrs in presence of 1 mM Mg2+ by CLSI-based broth microdilution method; assay type: functional; details: time hrs 18-24
Escherichia coli [20] = assay: Antibacterial activity against Escherichia coli ATCC 25922 after 18 to 24 hrs in presence of 4.5 mM K+ by CLSI-based broth microdilution method; assay type: functional; details: time hrs 18-24
[21] = Therapeutic index, ratio of MHC for human RBC to geometric mean of peptide MIC for Escherichia coli ATCC 25922; assay type: toxicity; details: human red blood cells (RBC), read-out: TI
Cell membrane [22] = assay: Induction of membrane in permeabilization Staphylococcus aureus ATCC 29213 after 1 hr by FITC/PI fluorescence staining-based confocal microscopy analysis
Escherichia coli [23] = assay: Antibacterial activity against Escherichia coli ATCC 25922 after 18 to 24 hrs in presence of 150 mM Na+ by CLSI-based broth microdilution method; assay type: functional; details: time hrs 18-24
Escherichia coli [24] = assay: Antibacterial activity against Escherichia coli ATCC 25922 infected in C57BL/6 mouse assessed as reduction in bacterial load in lung at 10 mg/kg, ip measured after 11 hrs (reference value: 6.48 log CFU/g); assay type: functional
[25] = Therapeutic index, ratio of MHC for human RBC to geometric mean of peptide MIC for Salmonella choleraesuis 503; assay type: toxicity; details: human red blood cells (RBC), read-out: TI
Escherichia coli [26] = assay: Antibacterial activity against Escherichia coli ATCC 25922 after 18 to 24 hrs by CLSI-based broth microdilution method; assay type: functional; details: time hrs 18-24
Erythrocyte = assay: Hemolytic activity in human RBC assessed as hemolysis; assay type: ADME, cell-based
[27] = Stability of compound assessed as pepsin (unknown origin)-mediated drug degradation after 8 hrs by SDS-PAGE analysis; assay type: ADME; details: human
Cell membrane [28] = assay: Disruption of membrane integrity in Escherichia coli ATCC 25922 assessed as induction of membrane rupture after 1 hr by PI-staining based flow cytometry analysis; assay type: subcellular
Salmonella enterica = assay: Antibacterial activity against Salmonella choleraesuis 503 after 18 to 24 hrs by CLSI-based broth microdilution method; assay type: functional; details: time hrs 18-24
[29] = Therapeutic index, ratio of MHC for human RBC to geometric mean of peptide MIC for methicillin-resistant Staphylococcus aureus 43300; assay type: toxicity; details: human red blood cells (RBC), read-out: TI
Cell membrane [30] = assay: Induction of structural changes in membrane of Escherichia coli ATCC 25922 assessed as sparsity at 1 times MIC after 1 hr by transmission electron microscopy; assay type: subcellular
[31] = Toxicity in C57BL/6 mouse assessed as effect on blood urea nitrogen level at 20 mg/kg, ip measured after 5 days; assay type: organism-based; details: in vivo, 120 h, time 5 day
[32] = Toxicity in C57BL/6 mouse assessed as effect on total bilirubin level at 20 mg/kg, ip measured after 5 days; assay type: organism-based; details: in vivo, 120 h, time 5 day
Cell membrane [33] = assay: Induction of morpholoical changes in membrane of Staphylococcus aureus ATCC 29213 assessed as breakage in bacterial membrane at 1 times MIC after 1 hr by scanning electron microscopy; assay type: subcellular
Escherichia coli [34] = assay: Antibacterial activity against Escherichia coli UB1005 after 18 to 24 hrs by CLSI-based broth microdilution method; assay type: functional; details: time hrs 18-24
Staphylococcus aureus [35] = assay: Antibacterial activity against Staphylococcus aureus ATCC 29213 after 18 to 24 hrs in presence of 25% human serum by CLSI-based broth microdilution method; assay type: functional; details: time hrs 18-24
Staphylococcus aureus [36] = assay: Antibacterial activity against Staphylococcus aureus ATCC 29213 after 18 to 24 hrs in presence of 6 uM NH4+ by CLSI-based broth microdilution method; assay type: functional; details: time hrs 18-24
Escherichia coli [37] = assay: Antibacterial activity against Escherichia coli ATCC 25922 measured after 18 to 24 hrs in presence of trypsin by CLSI-based broth microdilution method; assay type: functional, organism-based; details: time hrs 18-24

CC[C@H](C)[C@H](N)C(=O)N[C@H](C(=O)N[C@H](C(=O)N[C@@H](CS)C(=O)N[C@@H](CCCNC(=N)N)C(=O)N[C@@H](CCCCN)C(=O)N1CCC[C@H]1C(=O)N[C@H](C(=O)N[C@H](C(=O)N[C@@H](CS)C(=O)N[C@@H](CCCNC(=N)N)C(=O)N[C@@H](CCCCN)C(=O)N1CCC[C@H]1C(=O)N[C@H](C(=O)N[C@H](C(=O)N[C@@H](CS)C(=O)N[C@@H](CCCNC(=N)N)C(=O)N[C@@H](CCCCN)C(=O)N1CCC[C@H]1C(=O)N[C@H](C(=O)N[C@H](C(=O)N[C@@H](CS)C(=O)N[C@@H](CCCNC(=N)N)C(=O)N[C@@H](CCCCN)C(=O)N1CCC[C@H]1C(=O)N[C@H](C(=O)N[C@H](C(=O)N[C@H](C(N)=O)[C@@H](C)CC)[C@@H](C)CC)[C@@H](C)CC)[C@@H](C)CC)[C@@H](C)CC)[C@@H](C)CC)[C@@H](C)CC)[C@@H](C)CC)[C@@H](C)CC)[C@@H](C)CC)[C@@H](C)CC (H-IIICRKPIICRKPIICRKPIICRKPIII-NH2)
Activity (Escherichia coli [1]): Active
Activity [2]: Non-Toxic
Activity (Cell membrane [3]): Active
Activity [4]: Non-Toxic
selectivity ratio [5]: 57
Activity (Cell membrane [6]): Active
Stabilty [7]: Stable
Activity (Staphylococcus aureus [8]): Dose-dependent effect
MIC (Escherichia coli [9]): 2 µM
Activity (Escherichia coli [10]): 5.38 log10CFU/g
selectivity ratio [11]: 28.5
MIC [12]: 4 µM (≈ 13.3 µg/mL)
MIC (Salmonella typhimurium): 2 µM (≈ 6.63 µg/mL)
Activity (Lipopolysaccharide (LPS)): Dose-dependent effect
Activity (Cell membrane [13]): Active
Stabilty [14]: Stable
Activity (Cell membrane [15]): Active
MIC (Escherichia coli [16]): 2 µM
Activity (Cell membrane [17]): Active
Activity [18]: Non-Toxic
MIC (Staphylococcus aureus [19]): 16 µM
MIC (Escherichia coli [20]): 2 µM
selectivity ratio [21]: 57
Activity (Cell membrane [22]): Active
MIC (Escherichia coli [23]): 4 µM
Activity (Escherichia coli [24]): 5.58 log10CFU/g
selectivity ratio [25]: 57
MIC (Escherichia coli [26]): 2 µM (≈ 6.63 µg/mL)
MHC (Erythrocyte): > 128 µM
Stabilty [27]: Stable
Activity (Cell membrane [28]): Dose-dependent effect
MIC (Salmonella enterica): 2 µM (≈ 6.63 µg/mL)
selectivity ratio [29]: 28.5
Activity (Cell membrane [30]): Active
Activity [31]: Non-Toxic
Activity [32]: Non-Toxic
Activity (Cell membrane [33]): Active
MIC (Escherichia coli [34]): 2 µM (≈ 6.63 µg/mL)
MIC (Staphylococcus aureus [35]): 8 µM
MIC (Staphylococcus aureus [36]): 8 µM
Activity (Escherichia coli [37]): Active
